Data reported in patent US7632654B2, “Means and methods for detecting endoglycosidase activity” (Academisch Ziekenhuis bij de Universiteit van Amsterdam, priority 2002, dated 2009).
Each block holds one molecule with its values, some of them ahead of it.

What was measured:
[1] = system: bacterial chitinase, 39 and 50 kDa forms of human and mouse chitotriosidase and AMCases, fetal calf serum chitinase; experiment: CHIS versus 4-MU-chitobiose as substrate for other chitinases; assay type: biochemical; details: in all cases (not shown)
Protocol: For this purpose, assays were performed with CHIS and 4-MU-chitobiose as substrate with bacterial chitinase (Sigma), purified recombinant 39 and 50 kDa forms of human and mouse chitotriosidase and AMCases and purified fetal calf serum chitinase.

chitotriosidase = target: T1, chitotriosidase (Homo sapiens, UniProt Q13231); experiment: incubation of pure chitotriosidase with 4-MU-hexosamine and PNP-chitobiose (hydrolysis/transglycosylation); assay type: biochemical; details: substrate alone, 50 microM
T1 construct: made in house
Protocol: FIG. 2. […] Activity of 50 kDa recombinant human chitotriosidase towards PNPchitobiose, 4MU-hexosamine and a mixture of both substrates. Panel A: incubation 1. Enzyme was incubated with 50 microM PNPchitobiose and the reaction was stopped at indicated time points by adding excess of 0.2 M glycine-NaOH @H1O.3). Release of the hydrolysis product p-nitrophenol was determined spectrometrically at […]. Panel B: incubation 2. Enzyme was incubated with 50 microM 4MU-hexosamine and the reaction was stopped at indicated time points by adding excess of 0.2 M glycine-NaOH (pHlO.3). Release of the hydrolysis product 4-methyl-umbelliferone was determined fluorometrically (excitation at 366 nm; emission at 445 nm). Panel C: incubation 3. Enzyme was incubated with 50 microM PNPchitobiose and 50 microM 4MU-hexosamine and the reaction was stopped at indicated time points by adding excess of 0.2 M glycine-NaOH (pHlO.3). Release of hydrolysis products was measured spectrometrically and fluoremetrically.
FIG. 2A. Transglycosylation by chitotriosidase. Explanation for the outcome of the experiment depictured in FIG. 2. Chitotriosidase is able to remove chitobiose-unit from PNP-chitobiose, resulting in release of PNP that is spectrometrically detected. (FIG. 2 panel A). […]

50 kDa chitotriosidase = target: T2, 50 kDa chitotriosidase (Homo sapiens, UniProt Q13231); experiment: hydrolysis of 4-MU substrates by pure 50 kDa chitotriosidase, fluorimetric 4-MU release; assay type: biochemical; details: 37 C
T2 construct: made in house
Protocol: FIG. 3. Substrate concentration dependency of chitriosidase activity with novel artificial substrate as compared to present one. Activity of 50 kDa chitotriosdase towards 4-MU-chitobiose and 4-deoxy-variant hereof (CHIS1). Enzyme was incubated at 37 C with indicated concentrations of substrates. Reactions were stopped after 10 minutes and 4-MU measured fluorometrically.
FIG. 4. Improved linearity of chitotriosidase assay with time and enzyme concentration. Activity of 50 kDa chitotriosdase towards 4-MU-chitobiose and 4-deoxy-variant hereof (CHIS). Reaction time (FIG. 5a) and concentration of enzyme (FIG. 5b) were varied and enzyme activity was measured with 4MU-chitobiose and 4-deoxy-variant hereof.
The CHISI compound was tested as substrate. For this purpose, pure 50 kDa chitotriosidase was incubated with this substrate at 37 C in Mclvaine buffer (pH 5.5). For comparison the enzymes were in parallel incubated with 4-MU-chitobiose (Sigma). The reaction was stopped by adding excess of 0.1 M glycine-NaOH @H 10.3) and fluorescence was monitored (excitation at 366 nm, emission at 445 nm).
Even more importantly, saturating substrate concentrations (100-200 microM) can be used in the case of CHIS (Km of chitotriosidase is 50 microM). This renders a great improvement with regard to reproducibility of the assay and interpretation of results. […]

[2] = target: T3, lysozyme from chicken egg (Gallus gallus, UniProt P00698); experiment: substrate preference of lysozyme, 4MU release; assay type: biochemical; details: lysozyme from chicken egg (Sigma)
T3 construct: lysozyme from chicken egg; purchased Sigma; host or cells: chicken egg
From the text: (§1) Substrate preference of lysozyme. The enzymatic activity of commercial lysozyme preparations was 25 measured with 4-MU-chitobioside and 4MU-deoxychitbioside substrates. The release of 4MU was detected fluorimetrically, as described before. Similar to the findings for chitotriosidase (chitinase), the activity measured with the deoxy-subsytrate is far higher: […]

lysozyme from human milk = target: T4, lysozyme from human milk (Homo sapiens, UniProt P61626); experiment: substrate preference of lysozyme, 4MU release; assay type: biochemical; details: lysozyme from human milk (Sigma)
T4 construct: lysozyme from human milk; purchased Sigma; host or cells: human milk
T4 sequence (P61626 19-148): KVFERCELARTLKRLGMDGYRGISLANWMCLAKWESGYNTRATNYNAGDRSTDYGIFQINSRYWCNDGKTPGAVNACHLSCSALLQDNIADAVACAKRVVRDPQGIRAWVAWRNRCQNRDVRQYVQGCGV
From the text: as §1

[3] = target: T5, lysozyme from human neutrophils (Homo sapiens, UniProt P61626); experiment: substrate preference of lysozyme, 4MU release; assay type: biochemical; details: lysozyme from human neutrophils (Sigma)
T5 construct: lysozyme from human neutrophils; purchased Sigma; host or cells: human neutrophils
T5 sequence (P61626 19-148): T4 sequence (P61626 19-148)
From the text: as §1

plasma chitotriosidase [4] = experiment: plasma chitotriosidase in Gaucher patients following therapeutic interventions; assay type: in vivo, human; details: first patients in Europe treated, measured with 4MU-chitotriose, FIG. 7
From the text: Besides its use in the confirmation of the diagnosis of Gaucher disease, the measurement of plasma chitotriosidase activity is extremely valuable in decision making regarding initiation of costly therapeutic intervention and optimizing treatment dosing regimens (Aerts et al, 1997; Young et al., 1997; Cox et al., 2000). […] It can be seen that onset of disease can be accurately monitored by monitoring plasma enzyme level. Initiation of therapy results in reductions of the plasma marker of the pathological Gaucher cells. […] In many countries regular measurement of plasma chitotriosidase is now used to monitor response to therapy and increases in plasma chitotriosidase levels are used as a criterion to initiate treatment. The plasma chitotriosidase now plays an important role in the clinical management of Gaucher patients. The European Working Group on Gaucher Disease has recommended its use.
FIG. 7. […] Responses in plasma enzyme level in the first patient in Europe treated with enzyme replacement therapy (aiglucerase) and the first patient in Europe treated with substrate deprivation therapy (butyldeoxynojirimycin). Enzyme activities were measured with 4MU-chitotriose as described in Hollak et al., 1994.

plasma chitotriosidase [5] = experiment: plasma chitotriosidase in sarcoidosis patients treated with corticosteroids; assay type: in vivo, human; details: sarcoidosis patient, orally 25 mg
Protocol: Sarcoidosis is treated by administration of corticosteroids. Determination of optimal drug dosage is critical but unfortunately also complicated. It was studied whether plasma chitotriosidase levels change upon treatment. […] However, tapering of the dose to 5 mg per day after 17 weeks was followed by recurrence of disease activity while chitotriosidase activity increment preceded the worsening of symptoms. Another interesting finding concerns a patient that was treated with corticosteroid pulse therapy (1000 mg methyiprednisone for three days every 2 weeks). […] This was accompanied by marked clinical improvement.

serum chitotriosidase = serum chitotriosidase after G-CSF or GM-CSF in healthy volunteers; assay type: in vivo, human; details: parallel to lactoferrin
Protocol: Neutrophil Activation. To test the potential of chitotriosidase as a marker for the release of specific granules of neutrophils, we examined samples obtained in earlier studies in which granulocyte colony stimulating factor (G-CSF) or granulocyte-macrophage colony stimulating factor (GM-CSF) were administered to healthy volunteers. In these experiments it was previously shown that degranulation of the specific granules of neutrophils occurs. Neutrophils release their specific granule content after 2 hours after G-CSF injection, as detectable by the appearance of lactoferrin in the circulation. […] The increase in lactoferrin and chitotriosidase is not due to an increase in neutrophil cell number, because these levels peak later in time, after about 12 hours. A second peak in lactoferrin and chitotriosidase levels is seen after […] after G-CSF injection.

CSF chitotriosidase = CSF chitotriosidase in an MS patient under treatment; assay type: in vivo, human; details: one MS patient
Protocol: Multiple sclerosis (MS) is a presumed T-cell mediated Thi type autoimmune disease. In the pathophysiology of multiple sclerosis (MS) an important role is envisioned for activated T-lymphocytes and macrophages. It is generally thought that macrophages and resident brain microglia are agents of the demyelization that occurs in MS. Chitotriosidase activity was determined in plasma and cerebral spine fluid (CSF) of MS patients. In CSF of patients, but not in plasma, chitotriosidase activity is clearly elevated in relation to manifestation of MS. In a MS patient receiving recombinant beta-1B interferon treatment a concomitant 10-fold reduction in CSF chitotriosidase was noted by us. These findings indicate that chitotriosidase measurement is useful to assess the presence of activated phagocytes in the brain of MS patients and correction therein following treatment.

T1 sequence (Q13231 22-466): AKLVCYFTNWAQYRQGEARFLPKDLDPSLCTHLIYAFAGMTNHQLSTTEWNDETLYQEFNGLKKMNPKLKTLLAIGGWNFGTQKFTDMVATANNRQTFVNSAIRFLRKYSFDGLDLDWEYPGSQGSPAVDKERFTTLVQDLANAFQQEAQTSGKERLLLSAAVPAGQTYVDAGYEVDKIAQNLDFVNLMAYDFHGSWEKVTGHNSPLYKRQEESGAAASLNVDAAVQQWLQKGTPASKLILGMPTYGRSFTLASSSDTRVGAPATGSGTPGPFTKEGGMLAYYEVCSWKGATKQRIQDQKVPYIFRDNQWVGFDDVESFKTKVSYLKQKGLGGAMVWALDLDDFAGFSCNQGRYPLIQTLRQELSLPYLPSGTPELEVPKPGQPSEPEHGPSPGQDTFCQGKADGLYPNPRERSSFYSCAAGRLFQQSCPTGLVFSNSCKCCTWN
T2 sequence (Q13231 22-466): as above
T3 sequence (P00698 19-147): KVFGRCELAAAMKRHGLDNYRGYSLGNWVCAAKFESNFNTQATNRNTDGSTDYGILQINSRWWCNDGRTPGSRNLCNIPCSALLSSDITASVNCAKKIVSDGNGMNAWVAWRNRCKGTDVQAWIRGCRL

Molecule: CC(=O)N[C@H]1[C@H](Oc2ccc3c(C)cc(=O)oc3c2)O[C@H](CO)[C@@H](O[C@@H]2O[C@H](CO)[C@@H](O)[C@H](O)[C@H]2NC(C)=O)[C@@H]1O [4-MU-chitobiose, reference compound]
substrate behaviour with other chitinases [1]: showed apparent substrate inhibition at sub saturating concentrations

substrate of chitotriosidase (release of 4-MU or PNP) (chitotriosidase): no substrate
Molecule: CC(=O)N[C@H]1C(Oc2ccc3c(C)cc(=O)oc3c2)O[C@H](CO)[C@@H](O)[C@@H]1O (some centres unmarked) [4-MU-hexosamine, 4-methylumbelliferyl-N-acetyiglucosamine]

Km (50 kDa chitotriosidase; Mclvaine buffer pH 5.5): 50 µM
substrate inhibition (50 kDa chitotriosidase; pure 50 kDa chitotriosidase, pH 5.5, FIG. 3): does not show substrate inhibition
ratio 4MU-deoxychitobioside/4Mu-chitobioside [2]: 2.1-2.4
ratio 4MU-deoxychitobioside/4Mu-chitobioside (lysozyme from human milk): 2.5-3.0
ratio 4MU-deoxychitobioside/4Mu-chitobioside [3]: 3.0-3.2
Molecule: CC(=O)N[C@H]1[C@H](Oc2ccc3c(C)cc(=O)oc3c2)O[C@H](CO)[C@@H](O[C@@H]2O[C@H](CO)C[C@H](O)[C@H]2NC(C)=O)[C@@H]1O [CHIS1, 4-methylumbellyferyl 2-acetamido-2-deoxy-4-0-(2-acetamido-2,4-dideoxy-beta-D-glucopyranosyl)-beta-Dglucopyranoside]
substrate behaviour with other chitinases [1]: far more sensitive and linear at saturating substrate concentration

substrate of chitotriosidase (release of 4-MU or PNP) (chitotriosidase): is a substrate
Molecule: CC(=O)N[C@H]1[C@H](Oc2ccc([N+](=O)[O-])cc2)O[C@H](CO)[C@@H](O[C@@H]2O[C@H](CO)[C@@H](O)[C@H](O)[C@H]2NC(C)=O)[C@@H]1O [PNP-chitobiose]

Molecule: CCCCN1C[C@H](O)[C@@H](O)[C@H](O)[C@H]1CO [butyldeoxynojirimycin, reference compound]
response in plasma chitotriosidase (plasma chitotriosidase [4]): Corrections in plasma chitotriosidase

Molecule: C[C@]12C=CC(=O)C=C1CC[C@@H]1[C@@H]2C(=O)C[C@@]2(C)[C@H]1CC[C@]2(O)C(=O)CO [prednisone]
chitotriosidase activity upon treatment (plasma chitotriosidase [5]): markedly decreased

B1: G-CSF: granulocyte colony stimulating factor (protein, UniProt P09919 31-207, looked up)
Granulocyte …: TPLGPASSLPQSFLLKCLEQVRKIQGDGAALQEKLVSECATYKLCHPEELVLLGHSLGIPWAPLSSCPSQALQLAGCLSQLHSGLFLYQGLLQALEGISPELGPTLDTLQLDVADFATTIWQQMEELGMAPALQPTQGAMPAFASAFQRRAGGVLVASHLQSFLEVSYRVLRHLAQP
serum chitotriosidase levels (serum chitotriosidase): Parallel increases

B2: aiglucerase: enzyme replacement therapy for Gaucher disease (protein, UniProt P04062 40-536, looked up)
Lysosomal acid …: ARPCIPKSFGYSSVVCVCNATYCDSFDPPTFPALGTFSRYESTRSGRRMELSMGPIQANHTGTGLLLTLQPEQKFQKVKGFGGAMTDAAALNILALSPPAQNLLLKSYFSEEGIGYNIIRVPMASCDFSIRTYTYADTPDDFQLHNFSLPEEDTKLKIPLIHRALQLAQRPVSLLASPWTSPTWLKTNGAVNGKGSLKGQPGDIYHQTWARYFVKFLDAYAEHKLQFWAVTAENEPSAGLLSGYPFQCLGFTPEHQRDFIARDLGPTLANSTHHNVRLLMLDDQRLLLPHWAKVVLTDPEAAKYVHGIAVHWYLDFLAPAKATLGETHRLFPNTMLFASEACVGSKFWEQSVRLGSWDRGMQYSHSIITNLLYHVVGWTDWNLALNPEGGPNWVRNFVDSPIIVDITKDTFYKQPMFYHLGHFSKFIPEGSQRVGLVASQKNDLDAVALMHPDGSAVVVVLNRSSKDVPLTIKDPAVGFLETISPGYSIHTYLWRRQ
modifications: mannose-terminated glycans
notes: enzyme replacement therapy for Gaucher disease
response in plasma chitotriosidase (plasma chitotriosidase [4]): Corrections in plasma chitotriosidase

B3: recombinant beta-1B interferon: recombinant beta-1B interferon treatment of an MS patient (protein, UniProt P01574 22-187, looked up, variant C17S)
Interferon beta: MSYNLLGFLQRSSNFQSQKLLWQLNGRLEYCLKDRMNFDIPEEIKQLQQFQKEDAALTIYEMLQNIFAIFRQDSSSTGWNETIVENLLANVYHQINHLKTVLEEKLEKEDFTRGKLMSSLHLKRYYGRILHYLKAKEYSHCAWTIVRVEILRNFYFINRLTGYLRN
modifications: lacks N-terminal Met, non-glycosylated
notes: recombinant beta-1B interferon treatment of an MS patient
reduction in CSF chitotriosidase (CSF chitotriosidase): 10 fold
